{
  "source": "patent US6514992B1",
  "about": "“Caspases and apoptosis” (SmithKline Beecham Corporation, priority 1998, dated 2003)",
  "origin": "cited, not measured here",
  "system": "osteoclasts of murine bone marrow cultures",
  "details": "murine bone marrow cultures grown for 6 days in vitro",
  "data": [
    {"substance": "TGF-β1: cytokine cited as inducing apoptosis in osteoclasts of murine bone marrow cultures", "values": [
      {"measurement": "apoptosis induced in osteoclasts", "result": "approx. 30%"}
    ]}
  ]
}
